The source of these data is patent US20240067632A1, “WEE1 Degrading Compounds and Uses Thereof” (Bristol-Myers Squibb Company, priority 2022, published 2024).

The target in one experiment is T1, WEE1 (Homo sapiens, UniProt P30291+Q96SW2).
T1 construct: C-terminal ePL-tagged (DiscoverX, Fremont, CA) full-length WEE1 expression construct; expressed in transfected cells; host or cells: LentiX-HEK293T (Invitrogen), lentiviral transduction; co-expressing GSPT1-GN (G576N, lacking the first 158 amino acids)
Description: WEE1-ePL degradation assay (LentiX-WEE1-ePL-GSPT1-ND cells, InCELL Hunter luminescence, 4 h). It is filed as cell-based. As to conditions: 293T-LentiX WEE1-ePL cells; for DC50: read-out: 293T-LentiX WEE1-ePL Degradation 4 hr (EC50). An outline of the steps: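 HEK293T cells stably expressing C-terminal ePL-tagged full-length WEE1, 2500 cells/well, treated 4 h at 37° C with a 10-point 3-fold series from 1 or 10 uM. Remaining WEE1-ePL read by InCELL Hunter luminescence after 30 min. EC50 came from a four-parameter logistic fit, with Ymax set from DMSO control.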

The next experiment concerns MKN45 cells. Description: MKN45 cell proliferation assay (Cell-Titer-Glo, 120 h). Type of experiment: cell-based. As to conditions: for EC50: Homo sapiens, MKN-45, 120 h, Cell-Titer-Glo, read-out: MKN45 Cell Prolif. 120 hr (EC50); for MKN45 Cell Prolif. 120 hr (Ymin-Obs): minimal percent of DMSO control observed in the concentrations tested. Summed up:
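Cells seeded at 400/well onto pre-printed 10-point half-log dilutions (top 1 or 10 uM, 0.1% DMSO final), in triplicate, and grown 120 h at 37 C. Viability by Cell-Titer-Glo luminescence, blank-subtracted and normalised to DMSO; EC50 from four-parameter logistic fit, with observed minimal % of control recorded as Ymin-obs.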

Where [1] appears, read: lower limit of the fit (0 = luciferase inhibitor, Ymax = DMSO control).
Setting [2] is: lower limit of the fit (Ymin=0 luciferase inhibitor, Ymax DMSO control).

Read-outs that look alike come from different tables or passages of the source.

For `O=C1CCC(N2Cc3cc(O[C@H]4CCN(Cc5ccc6nc([C@H]7CCCOC7)ncc6c5)C4)ccc3C2=O)C(=O)N1` (stereo partly drawn) [3-(5-{[(3S)-1-({2-[(3R)-oxan-3-yl]quinazolin-6-yl}methyl)pyrrolidin-3-yl]oxy}-1-oxo-2,3-dihydro-1H-isoindol-2-yl)piperidine-2,6-dione], at WEE1 (setting [1]), the “293T-LentiX WEE1-ePL Degradation 4 hr (Ymin)” value came out at 28.5. Besides, the DC50 at WEE1 was determined as 16 nM. In the experiment on MKN45 cells (growth inhibition), the EC50 came to 8.8 nM. Also, in the experiment on MKN45 cells, the “MKN45 Cell Prolif. 120 hr (Ymin-Obs)” value was found to be 6.66.

With `O=C1CCC(N2Cc3cc(O[C@@H]4CN(Cc5ccc6nc([C@H]7CCOC7)ccc6c5)CC4(F)F)ccc3C2=O)C(=O)N1` (stereo partly drawn) [3-(5-{[(3R)-4,4-difluoro-1-({2-[(3R)-oxolan-3-yl]quinolin-6-yl}methyl)pyrrolidin-3-yl]oxy}-1-oxo-2,3-dihydro-1H-isoindol-2-yl)piperidine-2,6-dione], the “293T-LentiX WEE1-ePL Degradation 4 hr (Ymin)” value at WEE1 (setting [2]) was 30.81. Besides, the DC50 at WEE1 was found to be 8.49 nM. In addition, in the experiment on MKN45 cells, the EC50 turned out to be 8.42 nM and the “MKN45 Cell Prolif. 120 hr (Ymin-Obs)” value is reported as 8.764.

`O=C1CCC(N2Cc3cc(O[C@H]4CCN(Cc5cc6ccncc6cn5)C4)ccc3C2=O)C(=O)N1` (stereo partly drawn) [3-(5-{[(3S)-1-[(2,7-naphthyridin-3-yl)methyl]pyrrolidin-3-yl]oxy}-1-oxo-2,3-dihydro-1H-isoindol-2-yl)piperidine-2,6-dione]: on WEE1 (setting [1]), the “293T-LentiX WEE1-ePL Degradation 4 hr (Ymin)” value came out at 28.095. Moreover, the DC50 on WEE1 was 19.3 nM. In addition, the EC50 in the experiment with MKN45 cells (growth inhibition) was determined as 98.8 nM. Besides, in the experiment with MKN45 cells, the “MKN45 Cell Prolif. 120 hr (Ymin-Obs)” value turned out to be 6.92.

As for `O=C1CCC(N2Cc3cc(O[C@H]4CCN(Cc5nccc6c5CCCO6)C4)ccc3C2=O)C(=O)N1` (stereo partly drawn) [3-(1-oxo-5-{[(3S)-1-({2H,3H,4H-pyrano[3,2-c]pyridin-5-yl}methyl)pyrrolidin-3-yl]oxy}-2,3-dihydro-1H-isoindol-2-yl)piperidine-2,6-dione], at WEE1 (setting [1]), the “293T-LentiX WEE1-ePL Degradation 4 hr (Ymin)” value stood at 36. Further, on WEE1, the DC50 was 16.1 nM. Further, the half-maximal effective concentration (EC50) in the experiment with MKN45 cells (growth inhibition) stood at 122 nM. Also, in the experiment with MKN45 cells, the “MKN45 Cell Prolif. 120 hr (Ymin-Obs)” value is given as 16.99.

`CC1(C)CC(c2ccc3cc(CN4CC[C@H](Oc5ccc6c(c5)CN(C5CCC(=O)NC5=O)C6=O)C4)ccc3n2)CCO1` (stereo partly drawn) [3-(5-{[(3S)-1-{[2-(2,2-dimethyloxan-4-yl)quinolin-6-yl]methyl}pyrrolidin-3-yl]oxy}-1-oxo-2,3-dihydro-1H-isoindol-2-yl)piperidine-2,6-dione]: on WEE1 (setting [1]), the “293T-LentiX WEE1-ePL Degradation 4 hr (Ymin)” value was 29. Also, the DC50 at WEE1 stood at 2.56 nM. For the same molecule, in the experiment on MKN45 cells (growth inhibition), the EC50 is 2.14 nM. For the same molecule, the “MKN45 Cell Prolif. 120 hr (Ymin-Obs)” value in the experiment on MKN45 cells came to 7.959.

Take `O=C1CCC(N2Cc3cc(O[C@H]4CCN(Cc5ccc6nc(N7C[C@@H]8C[C@H]7CO8)ncc6c5)C4)ccc3C2=O)C(=O)N1` (stereo partly drawn) [3-(5-{[(3S)-1-({2-[(1S,4S)-2-oxa-5-azabicyclo[2.2.1]heptan-5-yl]quinazolin-6-yl}methyl)pyrrolidin-3-yl]oxy}-1-oxo-2,3-dihydro-1H-isoindol-2-yl)piperidine-2,6-dione]: the “293T-LentiX WEE1-ePL Degradation 4 hr (Ymin)” value on WEE1 (setting [1]) came to 34.5. Besides, on WEE1, the DC50 was determined as 12.3 nM. In addition, the EC50 in the experiment with MKN45 cells (growth inhibition) stood at 9.86 nM. Further, the “MKN45 Cell Prolif. 120 hr (Ymin-Obs)” value with MKN45 cells turned out to be 9.576.

Take `CCc1ccc2cc(CN3CC[C@H](Oc4ccc5c(c4)CN(C4CCC(=O)NC4=O)C5=O)C3)ccc2n1` (stereo partly drawn) [3-(5-{[(3S)-1-[(2-ethylquinolin-6-yl)methyl]pyrrolidin-3-yl]oxy}-1-oxo-2,3-dihydro-1H-isoindol-2-yl)piperidine-2,6-dione]: the “293T-LentiX WEE1-ePL Degradation 4 hr (Ymin)” value on WEE1 (setting [1]) worked out at 27. Further, on WEE1, the DC50 was found to be 3.02 nM. Also, the concentration giving a half-maximal response (EC50) with MKN45 cells (growth inhibition) was determined as 25.2 nM. Moreover, the “MKN45 Cell Prolif. 120 hr (Ymin-Obs)” value in the experiment on MKN45 cells was found to be 12.49.

As for `Cc1cc(Cl)c2cc(CN3CC[C@H](Oc4ccc5c(c4)CN(C4CCC(=O)NC4=O)C5=O)C3)ccc2n1` (stereo partly drawn) [3-(5-{[(3S)-1-[(4-chloro-2-methylquinolin-6-yl)methyl]pyrrolidin-3-yl]oxy}-1-oxo-2,3-dihydro-1H-isoindol-2-yl)piperidine-2,6-dione], at WEE1 (setting [1]), the “293T-LentiX WEE1-ePL Degradation 4 hr (Ymin)” value was 32.06. Also, the DC50 on WEE1 came to 4.29 nM. Moreover, the EC50 in the experiment with MKN45 cells (growth inhibition) is 392 nM. The “MKN45 Cell Prolif. 120 hr (Ymin-Obs)” value in the experiment with MKN45 cells is recorded as 44.06.

With `O=C1CCC(N2Cc3cc(O[C@H]4CCN(Cc5ccc6ncc(F)cc6c5F)C4)ccc3C2=O)C(=O)N1` (stereo partly drawn) [3-(5-{[(3S)-1-[(3,5-difluoroquinolin-6-yl)methyl]pyrrolidin-3-yl]oxy}-1-oxo-2,3-dihydro-1H-isoindol-2-yl)piperidine-2,6-dione], the “293T-LentiX WEE1-ePL Degradation 4 hr (Ymin)” value at WEE1 (setting [1]) is listed as 28.96. Also, the DC50 at WEE1 amounted to 8.71 nM. Further, the concentration for a half-maximal effect (EC50) in the experiment with MKN45 cells (growth inhibition) is 38.3 nM. Moreover, the “MKN45 Cell Prolif. 120 hr (Ymin-Obs)” value in the experiment with MKN45 cells came to 12.86.

In the case of `CN1CC[C@H](c2ncc3cc(CN4CC[C@H](Oc5ccc6c(c5)CN(C5CCC(=O)NC5=O)C6=O)C4)ccc3n2)C1` (stereo partly drawn) [3-(5-{[(3S)-1-({2-[(3S)-1-methylpyrrolidin-3-yl]quinazolin-6-yl}methyl)pyrrolidin-3-yl]oxy}-1-oxo-2,3-dihydro-1H-isoindol-2-yl)piperidine-2,6-dione], the “293T-LentiX WEE1-ePL Degradation 4 hr (Ymin)” value on WEE1 (setting [2]) stood at 36.52. Besides, the DC50 at WEE1 came to 248 nM. In the experiment with MKN45 cells, the half-maximal effective concentration (EC50) turned out to be 84.1 nM and the “MKN45 Cell Prolif. 120 hr (Ymin-Obs)” value amounted to 17.35.

As for `O=C1CCC(N2Cc3cc(O[C@H]4CCN(Cc5cc6ccccc6cn5)C4)c(F)cc3C2=O)C(=O)N1` (stereo partly drawn) [3-(6-fluoro-5-{[(3S)-1-[(isoquinolin-3-yl)methyl]pyrrolidin-3-yl]oxy}-1-oxo-2,3-dihydro-1H-isoindol-2-yl)piperidine-2,6-dione], on WEE1 (setting [1]), the “293T-LentiX WEE1-ePL Degradation 4 hr (Ymin)” value came to 34. Also, at WEE1, the DC50 was found to be 10.6 nM. Further, in the experiment with MKN45 cells (growth inhibition), the EC50 amounted to 53.7 nM. The “MKN45 Cell Prolif. 120 hr (Ymin-Obs)” value in the experiment with MKN45 cells is given as 7.57.

As for `CO[C@H]1CC[C@H](Oc2ccc3cc(CN4CC[C@H](Oc5ccc6c(c5)CN(C5CCC(=O)NC5=O)C6=O)C4)ccc3n2)CC1` (stereo partly drawn) [3-(1-oxo-5-{[(3S)-1-[(2-{[(1r,4r)-4-methoxycyclohexyl]oxy}quinolin-6-yl)methyl]pyrrolidin-3-yl]oxy}-2,3-dihydro-1H-isoindol-2-yl)piperidine-2,6-dione], on WEE1 (setting [1]), the “293T-LentiX WEE1-ePL Degradation 4 hr (Ymin)” value turned out to be 30.67. Also, the DC50 at WEE1 came out at 11.5 nM. The EC50 with MKN45 cells (growth inhibition) came out at 9.05 nM. In addition, the “MKN45 Cell Prolif. 120 hr (Ymin-Obs)” value in the experiment with MKN45 cells is reported as 8.57.

Regarding `CO[C@@H]1CCC[C@@H](c2ccc3cc(CN4CC[C@H](Oc5ccc6c(c5)CN(C5CCC(=O)NC5=O)C6=O)C4)ccc3n2)C1` (stereo partly drawn) [3-(5-{[(3S)-1-({2-[(1R,3R)-3-methoxycyclohexyl]quinolin-6-yl}methyl)pyrrolidin-3-yl]oxy}-1-oxo-2,3-dihydro-1H-isoindol-2-yl)piperidine-2,6-dione], at WEE1 (setting [1]), the “293T-LentiX WEE1-ePL Degradation 4 hr (Ymin)” value is 29. For the same molecule, at WEE1, the DC50 worked out at 2.83 nM. In the experiment on MKN45 cells (growth inhibition), the EC50 was 0.93 nM. For the same molecule, the “MKN45 Cell Prolif. 120 hr (Ymin-Obs)” value in the experiment on MKN45 cells worked out at 7.97.

For `CNC1(c2ccc3cc(CN4CC[C@H](Oc5ccc6c(c5)CN(C5CCC(=O)NC5=O)C6=O)C4)ccc3n2)COC1` (stereo partly drawn) [3-(5-{[(3S)-1-({2-[3-(methylamino)oxetan-3-yl]quinolin-6-yl}methyl)pyrrolidin-3-yl]oxy}-1-oxo-2,3-dihydro-1H-isoindol-2-yl)piperidine-2,6-dione], the “293T-LentiX WEE1-ePL Degradation 4 hr (Ymin)” value at WEE1 (setting [1]) is 36. For the same molecule, the DC50 on WEE1 was 37.6 nM. Moreover, the EC50 in the experiment with MKN45 cells (growth inhibition) is 19.9 nM. The “MKN45 Cell Prolif. 120 hr (Ymin-Obs)” value in the experiment with MKN45 cells is on record as 9.16.

For the molecule `O=C1CCC(N2Cc3cc(O[C@H]4CCN(Cc5ccc6nc(N7CC[C@]78CCOC8)ncc6c5)C4)ccc3C2=O)C(=O)N1` (stereo partly drawn) [3-(5-{[(3S)-1-({2-[(4R)-6-oxa-1-azaspiro[3.4]octan-1-yl]quinazolin-6-yl}methyl)pyrrolidin-3-yl]oxy}-1-oxo-2,3-dihydro-1H-isoindol-2-yl)piperidine-2,6-dione], the “293T-LentiX WEE1-ePL Degradation 4 hr (Ymin)” value on WEE1 (setting [1]) is recorded as 35.43. For the same molecule, the DC50 on WEE1 was determined as 19.5 nM. In addition, the EC50 in the experiment on MKN45 cells (growth inhibition) worked out at 16.7 nM. Further, the “MKN45 Cell Prolif. 120 hr (Ymin-Obs)” value in the experiment on MKN45 cells came out at 13.42.

As to `O=C1CCC(N2Cc3cc(O[C@H]4CCN(Cc5cc6cc(F)ccc6cn5)C4)c(F)cc3C2=O)C(=O)N1` (stereo partly drawn) [3-(6-fluoro-5-{[(3S)-1-[(6-fluoroisoquinolin-3-yl)methyl]pyrrolidin-3-yl]oxy}-1-oxo-2,3-dihydro-1H-isoindol-2-yl)piperidine-2,6-dione], the “293T-LentiX WEE1-ePL Degradation 4 hr (Ymin)” value at WEE1 (setting [1]) came out at 36. Moreover, the DC50 at WEE1 was determined as 14.3 nM. The EC50 with MKN45 cells (growth inhibition) came out at 104 nM. For the same molecule, the “MKN45 Cell Prolif. 120 hr (Ymin-Obs)” value in the experiment with MKN45 cells was found to be 11.55.

For the molecule `O=C1CCC(N2Cc3cc(O[C@H]4CCN(Cc5ccc6nc(N7CC8(CCOCC8)C7)ncc6c5)C4)ccc3C2=O)C(=O)N1` (stereo partly drawn) [3-(5-{[(3S)-1-[(2-{7-oxa-2-azaspiro[3.5]nonan-2-yl}quinazolin-6-yl)methyl]pyrrolidin-3-yl]oxy}-1-oxo-2,3-dihydro-1H-isoindol-2-yl)piperidine-2,6-dione], at WEE1 (setting [1]), the “293T-LentiX WEE1-ePL Degradation 4 hr (Ymin)” value is on record as 35. The DC50 on WEE1 was determined as 16.6 nM. In addition, in the experiment with MKN45 cells (growth inhibition), the EC50 came to 10.2 nM. Also, the “MKN45 Cell Prolif. 120 hr (Ymin-Obs)” value with MKN45 cells was found to be 9.958.
